Data as given in ChEMBL document CHEMBL1201862, “PubChem BioAssay data set” (2004).
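Step 1: Grow cells in 96-well plates. Step 2: Expose to compound for 48 hours at 5 concentrations. Step 3: Interpolate endpoints linearly; if unreached, use highest concentration. Abbreviation: GI50, concentration required for 50% inhibition of growth.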 Activity calls are given as the source filed them. Cut-off read from the data, not from the text of the source: active = GI50 up to about 1.1 µM and inactive = higher.

Columns and labels:
Experiment in all cases: NCI-60 cell line screen, 48 h
[1] = system: DU-145
[2] = system: EKVX
[3] = system: HOP-92
[4] = system: M14
[5] = system: MCF7
[6] = system: MDA-MB-231
[7] = system: MOLT-4
[8] = system: Malme-3M
[9] = system: NCI-H23
[10] = system: NCI-H460
[11] = system: OVCAR-4
[12] = system: PC-3
[13] = system: RPMI-8226
[14] = system: SF-295
[15] = system: SN12C
[16] = system: SNB-19
[17] = system: SR
[18] = system: SW-620
[19] = system: TK-10
[20] = system: HL-60

Compound	GI50 [1]	GI50 [2]	GI50 [3]	GI50 [4]	GI50 [5]	GI50 [6]	GI50 [7]	GI50 [8]	GI50 [9]	GI50 [10]	GI50 [11]	GI50 [12]	GI50 [13]	GI50 [14]	GI50 [15]	GI50 [16]	GI50 [17]	GI50 [18]	GI50 [19]	GI50 [20]
CCC1C(NC(=O)OC)C(=O)N1[C@@H](C)c1ccccc1 (some centres undefined)	> 100 µM (inactive)	> 100 µM (inactive)	> 100 µM (inactive)	> 100 µM (inactive)	> 100 µM (inactive)	> 100 µM (inactive)	> 100 µM (inactive)	> 100 µM (inactive)	> 100 µM (inactive)	> 100 µM (inactive)	> 100 µM (inactive)	> 100 µM (inactive)	> 100 µM (inactive)	> 100 µM (inactive)	> 100 µM (inactive)	> 100 µM (inactive)	> 100 µM (inactive)	> 100 µM (inactive)	> 100 µM (inactive)	–
CC(C)NCC(O)c1ccc(OCc2ccccc2)c(OCc2ccccc2)c1-c1ccccc1 (centres undefined)	1.75 µM (inactive)	14.3 µM (inactive)	2.62 µM (inactive)	1.93 µM (inactive)	1.79 µM (inactive)	1.69 µM (inactive)	2.05 µM (inactive)	1.77 µM (inactive)	1.97 µM (inactive)	1.79 µM (inactive)	1.89 µM (inactive)	1.53 µM (inactive)	2.51 µM (inactive)	2.05 µM (inactive)	1.75 µM (inactive)	2.6 µM (inactive)	2.68 µM (inactive)	1.63 µM (inactive)	2.35 µM (inactive)	–
NC1CC(=O)c2sccc21 (centres undefined)	> 100 µM (inactive)	> 100 µM (inactive)	> 100 µM (inactive)	> 100 µM (inactive)	> 100 µM (inactive)	> 100 µM (inactive)	> 100 µM (inactive)	–	> 100 µM (inactive)	–	> 100 µM (inactive)	56.4 µM (inactive)	> 100 µM (inactive)	> 100 µM (inactive)	> 100 µM (inactive)	> 100 µM (inactive)	> 100 µM (inactive)	> 100 µM (inactive)	> 100 µM (inactive)	–
CN(CCCNC(=O)c1nn(-c2ccc(Cl)cc2Cl)c2c1Cc1ccccc1-2)CCCNC(=O)c1nn(-c2ccc(Cl)cc2Cl)c2c1Cc1ccccc1-2	1.77 µM (inactive)	1.66 µM (inactive)	1.61 µM (inactive)	1.8 µM (inactive)	1.55 µM (inactive)	1.87 µM (inactive)	1.32 µM (inactive)	1.78 µM (inactive)	2 µM (inactive)	1.65 µM (inactive)	0.285 µM (active)	1.73 µM (inactive)	1.21 µM (inactive)	1.72 µM (inactive)	1.67 µM (inactive)	1.77 µM (inactive)	–	1.48 µM (inactive)	1.73 µM (inactive)	1.49 µM (inactive)
CCN(CC)C(=S)SC(C(=O)Nc1nnc(-c2ccccc2)o1)c1ccccc1 (centres undefined)	17.9 µM (inactive)	18.4 µM (inactive)	–	16.1 µM (inactive)	18.5 µM (inactive)	34.1 µM (inactive)	2.88 µM (inactive)	20.4 µM (inactive)	15.4 µM (inactive)	9.1 µM (inactive)	25.9 µM (inactive)	19.3 µM (inactive)	24.4 µM (inactive)	15.6 µM (inactive)	10.3 µM (inactive)	29.8 µM (inactive)	5.52 µM (inactive)	28.7 µM (inactive)	44.5 µM (inactive)	–
COc1c(OC(C)C)c(OC(C)C)c2oc(=O)n3c2c1C(c1ccccc1-n1c(C)ccc1C)C=C3 (centres undefined)	60.4 µM (inactive)	17.6 µM (inactive)	53.7 µM (inactive)	29.2 µM (inactive)	33 µM (inactive)	45 µM (inactive)	42.5 µM (inactive)	13 µM (inactive)	34.8 µM (inactive)	41.9 µM (inactive)	75 µM (inactive)	14.2 µM (inactive)	64.6 µM (inactive)	74.3 µM (inactive)	71.9 µM (inactive)	> 100 µM (inactive)	–	32.5 µM (inactive)	> 100 µM (inactive)	> 100 µM (inactive)
O=C1NC(=O)C2(CCC(O)C2)c2cc[n+]([O-])cc21 (centres undefined)	> 100 µM (inactive)	71.8 µM (inactive)	> 100 µM (inactive)	> 100 µM (inactive)	> 100 µM (inactive)	> 100 µM (inactive)	> 100 µM (inactive)	> 100 µM (inactive)	> 100 µM (inactive)	> 100 µM (inactive)	> 100 µM (inactive)	> 100 µM (inactive)	> 100 µM (inactive)	> 100 µM (inactive)	> 100 µM (inactive)	> 100 µM (inactive)	> 100 µM (inactive)	> 100 µM (inactive)	> 100 µM (inactive)	–
CSc1nc(C)c2c(n1)N(c1ccc(Cl)cc1)CC2	> 100 µM (inactive)	> 100 µM (inactive)	> 100 µM (inactive)	> 100 µM (inactive)	> 100 µM (inactive)	42.3 µM (inactive)	> 100 µM (inactive)	> 100 µM (inactive)	> 100 µM (inactive)	> 100 µM (inactive)	61.4 µM (inactive)	> 100 µM (inactive)	> 100 µM (inactive)	> 100 µM (inactive)	> 100 µM (inactive)	> 100 µM (inactive)	> 100 µM (inactive)	> 100 µM (inactive)	> 100 µM (inactive)	–
O=C(Cc1ccccc1)NNc1nc(NNC(=O)c2ccncc2)nc(Nc2ccc([N+](=O)[O-])cc2)n1	> 10 µM (inactive)	9.46 µM (inactive)	> 10 µM (inactive)	> 10 µM (inactive)	> 10 µM (inactive)	> 10 µM (inactive)	> 10 µM (inactive)	> 10 µM (inactive)	6.79 µM (inactive)	> 10 µM (inactive)	> 10 µM (inactive)	2.7 µM (inactive)	> 10 µM (inactive)	> 10 µM (inactive)	> 10 µM (inactive)	6.56 µM (inactive)	> 10 µM (inactive)	> 10 µM (inactive)	> 10 µM (inactive)	–
COc1ccc(C(=C(Cl)c2ccccc2)c2ccc(OC)cc2)cc1	> 100 µM (inactive)	> 100 µM (inactive)	> 100 µM (inactive)	> 100 µM (inactive)	> 100 µM (inactive)	> 100 µM (inactive)	> 100 µM (inactive)	> 100 µM (inactive)	> 100 µM (inactive)	> 100 µM (inactive)	> 100 µM (inactive)	> 100 µM (inactive)	35.1 µM (inactive)	> 100 µM (inactive)	> 100 µM (inactive)	> 100 µM (inactive)	–	> 100 µM (inactive)	> 100 µM (inactive)	57.8 µM (inactive)
COc1nc(C#CCCCC#N)nc(OC)n1	8.93 µM (inactive)	19.8 µM (inactive)	–	22.2 µM (inactive)	5.27 µM (inactive)	11.7 µM (inactive)	14.4 µM (inactive)	13.4 µM (inactive)	13.8 µM (inactive)	26.3 µM (inactive)	3.82 µM (inactive)	13.2 µM (inactive)	–	28.2 µM (inactive)	16.4 µM (inactive)	77.3 µM (inactive)	7.38 µM (inactive)	15 µM (inactive)	21.6 µM (inactive)	4.13 µM (inactive)
O=S(=O)(c1ccccc1)C1CN(Cc2ccccc2)CCN(Cc2ccccc2)C1	80.5 µM (inactive)	36.7 µM (inactive)	–	24.2 µM (inactive)	36.8 µM (inactive)	39.2 µM (inactive)	7.24 µM (inactive)	25.5 µM (inactive)	15.7 µM (inactive)	26.7 µM (inactive)	9.79 µM (inactive)	8.71 µM (inactive)	4.55 µM (inactive)	73.8 µM (inactive)	32.4 µM (inactive)	> 60.4 µM (inactive)	7.76 µM (inactive)	24 µM (inactive)	63.4 µM (inactive)	5.92 µM (inactive)
COc1ccc(-c2nc(O)c3ccccc3n2)cc1OC	> 100 µM (inactive)	18.1 µM (inactive)	–	> 100 µM (inactive)	> 100 µM (inactive)	24.4 µM (inactive)	> 100 µM (inactive)	> 100 µM (inactive)	> 100 µM (inactive)	> 100 µM (inactive)	> 100 µM (inactive)	> 100 µM (inactive)	54.2 µM (inactive)	50.8 µM (inactive)	26.5 µM (inactive)	31.2 µM (inactive)	> 100 µM (inactive)	> 100 µM (inactive)	–	–
COc1ccc(-c2cc(-c3ccc(Cl)cc3)n(C3OC(CO)C(O)C(O)C3O)c(=S)c2C#N)cc1 (centres undefined)	4.04 µM (inactive)	–	> 100 µM (inactive)	30 µM (inactive)	> 10 µM (inactive)	37.5 µM (inactive)	5.79 µM (inactive)	–	–	13 µM (inactive)	30 µM (inactive)	> 100 µM (inactive)	30.5 µM (inactive)	> 100 µM (inactive)	> 100 µM (inactive)	> 100 µM (inactive)	42.9 µM (inactive)	48.2 µM (inactive)	30.3 µM (inactive)	–
O=C(NC1CCC(=O)N1C(=O)OCc1ccccc1)OCc1ccccc1 (centres undefined)	> 100 µM (inactive)	–	> 100 µM (inactive)	> 100 µM (inactive)	> 100 µM (inactive)	> 100 µM (inactive)	> 100 µM (inactive)	> 100 µM (inactive)	> 100 µM (inactive)	> 100 µM (inactive)	–	> 100 µM (inactive)	> 100 µM (inactive)	> 100 µM (inactive)	> 100 µM (inactive)	> 100 µM (inactive)	> 100 µM (inactive)	> 100 µM (inactive)	> 100 µM (inactive)	–
